In ChEMBL document CHEMBL1201862, “PubChem BioAssay data set” (2004):
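Cultured in 96-well plates, cells were exposed to test compound for 48 hours across five concentrations. GI50 = concentration required for 50% inhibition of growth.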 Calls of active or inactive are those of the source. No stated cut-off is given here; in the data, active = GI50 up to about 1.1 µM and inactive = higher.

Legend:
Experiment in all cases: NCI tumour cell line growth inhibition, 48 h
ACHN = tested on: ACHN
CCRF-CEM = tested on: CCRF-CEM
HCT-116 = tested on: HCT-116
HCT-15 = tested on: HCT-15
HOP-62 = tested on: HOP-62
K562 = tested on: K562
KM12 = tested on: KM12
M14 = tested on: M14
MDA-MB-231 = tested on: MDA-MB-231
MDA-MB-435 = tested on: MDA-MB-435
NCI-H226 = tested on: NCI-H226
NCI-H23 = tested on: NCI-H23
NCI-H460 = tested on: NCI-H460
OVCAR-3 = tested on: OVCAR-3
RXF 393 = tested on: RXF 393
SF-539 = tested on: SF-539
SNB-19 = tested on: SNB-19
SW-620 = tested on: SW-620
TK-10 = tested on: TK-10
UO-31 = tested on: UO-31

| Structure (SMILES) | GI50 (ACHN) | GI50 (CCRF-CEM) | GI50 (HCT-116) | GI50 (HCT-15) [µM] | GI50 (HOP-62) | GI50 (K562) | GI50 (KM12) | GI50 (M14) | GI50 (MDA-MB-231) | GI50 (MDA-MB-435) | GI50 (NCI-H226) | GI50 (NCI-H23) | GI50 (NCI-H460) | GI50 (OVCAR-3) | GI50 (RXF 393) | GI50 (SF-539) | GI50 (SNB-19) | GI50 (SW-620) | GI50 (TK-10) | GI50 (UO-31) |
| --- | --- | --- | --- | --- | --- | --- | --- | --- | --- | --- | --- | --- | --- | --- | --- | --- | --- | --- | --- | --- |
| CCN(CC)CCn1c2ccccc2c(=O)c2c(O)ccc(O)c21 | 33.7 µM (inactive) | 11 µM (inactive) | 31.1 µM (inactive) | 33.8 | 50.5 µM (inactive) | 15.9 µM (inactive) | 49.2 µM (inactive) | 42 µM (inactive) | 16.1 µM (inactive) | 18.6 µM (inactive) | 53.6 µM (inactive) | 45.6 µM (inactive) | > 57.9 µM (inactive) | 31.5 µM (inactive) | 19 µM (inactive) | 33.8 µM (inactive) | 58.9 µM (inactive) | 13.8 µM (inactive) | 31.6 µM (inactive) | 47.4 µM (inactive) |
| O=[N+]([O-])c1cccc(-c2csc(N/N=C3\NC/C(=C/c4ccc5c(c4)OCO5)S3)n2)c1 | 28.9 µM (inactive) | 35.4 µM (inactive) | 30.6 µM (inactive) | 35.7 | 25.2 µM (inactive) | 38.3 µM (inactive) | 12.9 µM (inactive) | 23.3 µM (inactive) | 35.1 µM (inactive) | 40.2 µM (inactive) | 16.6 µM (inactive) | 20.1 µM (inactive) | 33.5 µM (inactive) | 30.3 µM (inactive) | 22.6 µM (inactive) | 40.8 µM (inactive) | 20.5 µM (inactive) | 34 µM (inactive) | 32.2 µM (inactive) | 25.9 µM (inactive) |
